Test results taken from patent publication US20260373094A1, “MICROSTRUCTURE CONTAINING WATER-SOLUBLE AND FAT-SOLUBLE IMMUNOMODULATOR” (IUCF-HYU (INDUSTRY-UNIVERSITY COOPERATION FOUNDATION …, priority 2022, published 2026).

Tests used:
PD-L1 = assay: Inhibition of PD-L1 protein expression in melanoma cells (confocal, flow cytometry); type: cell-based; conditions: SD208 1 μmol/L, TGF-β 5 ng/m, 24 hours, B16F10 melanoma cells
Method: 5×10^4 B16F10 melanoma cells per well of a cell culture plate were cultured in a 12-well plate using DMEM, and then treated with the immunoadjuvant SD208 (1 μmol/L) and the tumor marker TGF-β (5 ng/m) for 24 hours.
Thereafter, the cells were imaged using a STELLARIS 8 STED confocal laser scanning microscope after treatment with an anti-PD-L1 Alexa 488 fluorescent antibody. In addition, the fluorescence expression level of the PD-L1 protein was confirmed through flow cytometry.

B16F10 melanoma cells [1] = assay: Melanoma cell spheroid volume, 3D cell culture; type: cell-based; conditions: SD208 1 μmol/L, TGF-β 5 ng/m, eight days, 3D culture
Method: For 3D cell culture, 1,000 B16F10 melanoma cells per 100 μl of DMEM were placed in a PCR tube and collected at the bottom by centrifugation. After culturing the cells in the PCR tubes for three days, they were transferred to a 96-well plate and treated with DMEM containing the immunoadjuvant SD208 (1 μmol/L) and the tumor marker TGF-β (5 ng/m). The DMEM was exchanged with fresh DMEM every three days, and the changes in the size of melanoma cell spheroids were measured for eight days using a microscope.

B16F10 melanoma cells [2] = assay: Wound healing, 2D melanoma cell culture; type: cell-based; conditions: SD208 1 μmol/L, TGF-β 5 ng/m, 24 hours, 2D culture
Method: For 2D cell culture, 8×10^4 B16F10 melanoma cells were cultured in a 12-well plate using DMEM until the wells were full. Thereafter, the cells filling the wells were scratched in a cross shape to create a wound, and treated with the immunoadjuvant SD208 (1 μmol/L) and the tumor marker TGF-β (5 ng/m) for 24 hours, and the wound healing rate over time was imaged using a microscope.

TGF-β = assay: Inhibition of TGF-β activity in melanoma cells (immunofluorescence, western blotting); type: cell-based; conditions: SD208 1 μmol/L, TGF-β 5 ng/m, 24 hours, B16F10 melanoma cells
Method: 5×10^4 B16F10 melanoma cells per well of a cell culture plate were cultured in a 12-well plate using Dulbecco's Modified Eagle Medium (DMEM), and then treated with the immunoadjuvant SD208 (1 μmol/L) and the tumor marker TGF-β (5 ng/m) for 24 hours. Thereafter, cells were treated with an anti-α-tubulin Alexa 488 fluorescent antibody and 4′,6-diamidino-2-phenylindole (DAPI), and then imaged using the STELLARIS 8 STED confocal laser scanning microscope.
In addition, changes in the expression levels of proteins activated by TGF-β were confirmed by western blotting using anti-Psmad3, anti-smad3, anti-N-cadherin, and anti-E-cadherin antibodies.

[3] = Confocal imaging of fluorescent substances in composite solvent microstructure; type: physicochemical; conditions: PBS:DMSO 9:1, 20% (w/v) hyaluronic acid
Method: The fluorescein isothiocyanate (FITC) fluorescent substance which is soluble only in a water-soluble solvent, and the Cy5.5 fluorescent substance, which is soluble only in a fat-soluble solvent, were added to a composite solvent containing a mixture of a water-soluble solvent (PBS) and a fat-soluble solvent (DMSO) in a ratio of 9:1 (10% (v/v) fat-soluble) and 20% (w/v) hyaluronic acid was further dissolved, and microstructures were fabricated using the method of Manufacturing Example 1. Thereafter, the composite solvent fluorescence microstructures were imaged using the STELLARIS 8 STED confocal laser scanning microscope.

| distribution within the microstructure [3] | Compound | fluorescence value of PD-L1 (PD-L1 expression) (PD-L1) | melanoma cell spheroid volume increase effect caused by TGF-β (B16F10 melanoma cells [1]) | wound healing effect by TGF-β (B16F10 melanoma cells [2]) | effect of TGF-β (TGF-β) | expression of proteins activated by TGF-β (TGF-β; Psmad3, smad3, N-cadherin, E-cadherin) |
| --- | --- | --- | --- | --- | --- | --- |
| – | Fc1ccc(Cl)cc1-c1nc(Nc2ccncc2)c2nccnc2n1 [SD208] | decreased | inhibited | inhibited | inhibited the effect of TGF-β | suppressing the expression of proteins activated by TGF-β |
| evenly distributed | Cy5.5 | – | – | – | – | – |
